Where two headings read alike, the source gives them in different places.
Tests used:
metastatic cancers = assay: FDG-PET SUVmax in patients with different types of metastatic cancer; assay type: in vivo, human
Method: (§1) ^18F-FDG-PET in breast cancer patients with metastatic disease. Approval was obtained from the Albert Einstein College of Medicine Cancer Center Protocol Review Committee and the Montefiore Medical Center Institutional Review Board. Retrospectively, five consecutive patients with breast cancer and metastatic disease shown on ^18F-FDG-PET scanning were evaluated. After more than 4 hours of fasting, the patients were administered 3.5 mCi of ^18F-FDG, and rested during an uptake period of 45 minutes. The patients then underwent a whole-body scan on the CPET scanner. The scanning protocol consisted of 6 minutes of emission and two rotations of a ^137Cs source for transmission per bed position, and approximately six bed positions. Images were corrected for attenuation and reconstructed with the iterative method. To reduce volume averaging, a small round region of interest 12 pixels in size was drawn in the center of the tumor and in the center of normal liver. The diameter of the region was 14 mm. Standardized uptake values (SUVs) were calculated for all regions of interest by the formula SUV=(activity in tissue [mCi/g]) divided by (injected activity [mCi]/body weight [g]). The tumor to liver ratios (TLRS) were calculated by the formula TLR=SUV of tumor divided by SUV of liver.
Human Tumor Dosimetry. For each patient, the tumor with the highest SUVmax was used, and corresponding calculated tumor dose (TD) for metastatic cancers are shown in Columns 4 and 5 in Table 3. Tumor dose is calculated by the formulae: D(cGy)=100*SUV, for a dose of 5 Ci HD ^18F-FDG; and D(cGy)=150*SUV, for a dose of 7.5 Ci HD ^18F-FDG.

[1] = Human Maximum Tolerated Dose (MTD) of ^18F-FDG, organ dosimetry calculation; settings: for 5 Ci FDG Organ dose / 7.5 Ci FDG Organ dose / MTD FDG (calculated MTD of ^18F-FDG for the organ): 70 Kg person
Method: The dose-limiting organ for therapy with ^18F-FDG is the bone marrow. The activity of ^18F-FDG that will deliver doses of 200 rad to the red marrow (less than 5% damage in 5 years) (Early and Sodee, 1995) and also 300 rad were calculated using the Medical Internal Radionuclide Dosimetry formalism. A dose of 300 rad was considered because it causes acceptable and manageable hematologic toxicity in selected patients (Early and Sodee, 1995). The subsequent doses delivered to ^18F-FDG-avid tumors were calculated.
Human Maximum Tolerated Dose (MTD) of ^18F-FDG. Table 1 indicates the radiation dose (Column 2) to each organ (Column 1) from 1mCi of ^18F-FDG for a 70 Kg person. The tolerated radiation dose of each organ (5% complications in 5 years) is described in Table 1, Column 3. The MTD of ^18F-FDG for each organ is described in Table 1, Column 4. The smallest value in this column is 4.88 Ci, which is the MTD of ^18F-FDG for a 70 Kg person, delivering 200 cGy to the ovaries. This is the critical organ for female patients; however, female patients with metastatic cancer have usually undergone chemotherapy causing ovarian failure or may choose to accept ovarian failure as a side effect of therapy. If ovarian function is not a consideration, then the critical organ is the bone marrow for both male and female patients. A dose of 5.00 Ci of ^18F-FDG would deliver 200 cGy to the bone marrow of a 70 Kg person.

BALB/c mice = assay: Radiotoxicity studies of ^18F-FDG in healthy mice; assay type: in vivo, mouse; settings: doses of up to 5 mCi i.p., 1 month
Method: Radiotoxicity studies of ^18F-FDG in healthy mice. After a 4-hour fast, […] of BALB/c mice were treated i.p. with the following doses of ^18F-FDG: group 1 (three mice), 2.5 mCi; group 2 (three mice), 5 mCi; group 3 (three mice), left untreated for control. The mice were monitored for changes in behavior and body weight for 1 month, after which they were killed. Their heart, brain, liver, kidneys, bladder, and bone marrow were removed, fixed in buffered formalin, sectioned, stained with hematoxylin and eosin (H&E), and analyzed histologically.

metastatic breast cancer = assay: ^18F-FDG-PET in breast cancer patients with metastatic disease; assay type: in vivo, human
Method: as §1

[2] = 70 Kg person, cited from earlier work
[3] = Patient 1, metastasis to sub-carinal lymph node, 3.5 mCi
[4] = Patient 2, metastasis to the left axilla, 3.5 mCi
[5] = Patient 4, metastasis to the right axilla, 3.5 mCi

Compound: O=C[C@H]([18F])[C@@H](O)[C@H](O)[C@H](O)CO [^18F-FDG, ^18F-2-deoxy-2-fluoro-D-glucose]
- SUVmax Median (metastatic cancers; metastatic Anaplastic Thyroid cancer, 3 patients): 17.4
- SUVmax Median (metastatic cancers; metastatic Breast cancer, 10 patients): 7.2
- SUVmax Median (metastatic cancers; metastatic Cervical cancer, 4 patients): 7.0
- SUVmax Median (metastatic cancers; metastatic Esophageal cancer, 5 patients): 11.1
- SUVmax Median (metastatic cancers; metastatic Head & Neck cancer, 9 patients): 6.6
- SUVmax Median (metastatic cancers; metastatic Lung cancer, 10 patients): 5.9
- SUVmax Median (metastatic cancers; metastatic Lymphoma, 9 patients): 5.6
- SUVmax Median (metastatic cancers; metastatic Melanoma, 7 patients): 9.0
- SUVmax Median (metastatic cancers; metastatic Ovarian cancer, 9 patients): 5.3
- maximum SUV (metastatic cancers; patient with metastatic esophageal cancer, abdominal metastasis): 33
- maximum SUV (metastatic cancers; patient with metastatic non-small cell lung cancer, right mediastinum): 14.8
- 5 Ci FDG Organ dose ([1]; Bone marrow): 200 cGy
- 7.5 Ci FDG Organ dose ([1]; Bone marrow): 300 cGy
- 5 Ci FDG Organ dose ([1]; Brain): 850 cGy
- 7.5 Ci FDG Organ dose ([1]; Brain): 1275 cGy
- MTD FDG (calculated MTD of ^18F-FDG for the organ) ([1]; Brain, organ MTD 4500 cGy (5% complications in 5 years)): 26.47 Ci
- 5 Ci FDG Organ dose ([1]; Heart wall): 1250 cGy
- 7.5 Ci FDG Organ dose ([1]; Heart wall): 1875 cGy
- MTD FDG (calculated MTD of ^18F-FDG for the organ) ([1]; Heart wall, organ MTD 4000 cGy (5% complications in 5 years)): 16.00 Ci
- 5 Ci FDG Organ dose ([1]; Kidneys): 390 cGy
- 7.5 Ci FDG Organ dose ([1]; Kidneys): 585 cGy
- MTD FDG (calculated MTD of ^18F-FDG for the organ) ([1]; Kidneys, organ MTD 2300 cGy (5% complications in 5 years)): 29.49 Ci
- 5 Ci FDG Organ dose ([1]; Liver): 440 cGy
- 7.5 Ci FDG Organ dose ([1]; Liver): 660 cGy
- MTD FDG (calculated MTD of ^18F-FDG for the organ) ([1]; Liver, organ MTD 3000 cGy (5% complications in 5 years)): 34.09 Ci
- 5 Ci FDG Organ dose ([1]; Lungs): 280 cGy
- 7.5 Ci FDG Organ dose ([1]; Lungs): 420 cGy
- MTD FDG (calculated MTD of ^18F-FDG for the organ) ([1]; Lungs, organ MTD 6500 cGy (5% complications in 5 years)): 116.07 Ci
- 5 Ci FDG Organ dose ([1]; Ovaries): 205 cGy
- 7.5 Ci FDG Organ dose ([1]; Ovaries): 308 cGy
- MTD FDG (calculated MTD of ^18F-FDG for the organ) ([1]; Ovaries, organ MTD 200 cGy (5% complications in 5 years)): 4.88 Ci
- 5 Ci FDG Organ dose ([1]; Testes): 205 cGy
- 7.5 Ci FDG Organ dose ([1]; Testes): 308 cGy
- MTD FDG (calculated MTD of ^18F-FDG for the organ) ([1]; Testes, organ MTD 500 cGy (5% complications in 5 years)): 12.20 Ci
- 5 Ci FDG Organ dose ([1]; Urinary bladder): 1350 cGy
- 7.5 Ci FDG Organ dose ([1]; Urinary bladder): 2025 cGy
- MTD FDG (calculated MTD of ^18F-FDG for the organ) ([1]; Urinary bladder, organ MTD 6500 cGy (5% complications in 5 years)): 24.07 Ci
- dose to the brain ([1]; administered dose of 7.50 Ci): 1275 rad
- damage in major organs including bone marrow (histological examination) (BALB/c mice): no damage in major organs
- SUV Metastasis (metastatic breast cancer; [3]): 5.3
- TLR (metastatic breast cancer; [3]): 1.89
- SUV Normal liver (metastatic breast cancer; Patient 1, 3.5 mCi): 2.8
- SUV Metastasis (metastatic breast cancer; [4]): 7.4
- TLR (metastatic breast cancer; [4]): 3.36
- SUV Normal liver (metastatic breast cancer; Patient 2, 3.5 mCi): 2.3
- SUV Metastasis (metastatic breast cancer; Patient 3, liver metastasis (10 cm×6 cm×4.5 cm), 3.5 mCi): 5.8
- TLR (metastatic breast cancer; Patient 3, liver metastasis, 3.5 mCi): 2.23
- lowest SUV (metastatic breast cancer; Patient 3, tumor with a diameter of 2 cm): 3.8
- SUV Normal liver (metastatic breast cancer; Patient 3, 3.5 mCi): 2.6
- SUV Metastasis (metastatic breast cancer; [5]): 5.3
- TLR (metastatic breast cancer; [5]): 2.52
- SUV Normal liver (metastatic breast cancer; Patient 4, 3.5 mCi): 2.1
- SUV Metastasis (metastatic breast cancer; Patient 5, right lung metastasis (most intense, diameter 5 cm), 3.5 mCi): 9.9
- TLR (metastatic breast cancer; Patient 5, right lung metastasis, 3.5 mCi): 3.67
- least intense SUV (metastatic breast cancer; Patient 5, tumor with a diameter of 1.5 cm): 2.9
- SUV Normal liver (metastatic breast cancer; Patient 5, 3.5 mCi): 2.7
- average TLR (metastatic breast cancer; five patients with metastatic breast cancer, 3.5 mCi): 2.7±0.8
- Radiation dose to organ from 1 mCi ^18F-FDG ([2]; Bone marrow): 0.04 cGy/mCi
- Radiation dose to organ from 1 mCi ^18F-FDG ([2]; Brain): 0.17 cGy/mCi
- Radiation dose to organ from 1 mCi ^18F-FDG ([2]; Heart wall): 0.25 cGy/mCi
- Radiation dose to organ from 1 mCi ^18F-FDG ([2]; Kidneys): 0.078 cGy/mCi
- Radiation dose to organ from 1 mCi ^18F-FDG ([2]; Liver): 0.088 cGy/mCi
- Radiation dose to organ from 1 mCi ^18F-FDG ([2]; Lungs): 0.056 cGy/mCi
- Radiation dose to organ from 1 mCi ^18F-FDG ([2]; Ovaries): 0.041 cGy/mCi
- Radiation dose to organ from 1 mCi ^18F-FDG ([2]; Testes): 0.041 cGy/mCi
- Radiation dose to organ from 1 mCi ^18F-FDG ([2]; Urinary bladder): 0.27 cGy/mCi

— US20060018827A1, “Positron therapy of inflammation, infection and disease” (priority 2004, published 2006)
